Reference: US11952365B2, “Anti-viral compounds” (Aligos Therapeutics, Inc., priority 2020, dated 2024)
Read-outs that look alike come from different tables or passages of the source.

Tests used:
[1] = tested on: SARS-CoV-2-GHB-03021/2020; assay: SARS-CoV-2 Infection Model in Huh7 Cells; type: cell-based; settings: Severe acute respiratory syndrome coronavirus 2, Huh-7, 96 h, SARS-CoV-2, day 4 p.i., MTS, class symbols
3CLpro = 3CLpro (Severe acute respiratory syndrome coronavirus 2, UniProt P0DTD1); assay: SARS-CoV-2 3CLpro protease assay (duplex, SAMDI-MS); type: biochemical; design: For the duplex assay, 3CLpro and HRV3C was added; settings: 3CLpro, 30 mins preincubation, class symbols; read-out: SARS-Cov-2 IC50
in vitro [2] = settings: human
HRV3C = HRV3C (Human rhinovirus 14, UniProt P03303); assay: HRV3C protease assay (duplex, SAMDI-MS); type: biochemical, HRV; settings: 30 mins preincubation
Procedure: Protease assays were performed in 384-well low volume polypropylene microtiter plates at ambient temperature. For the duplex assay, 3CLpro and HRV3C was added using a Multidrop Combi (Thermo Scientific; Waltham, MA) and preincubated for 30 mins with small molecules. The reactions were initiated by the addition of the two peptide substrates. The reactions were incubated for 30 mins and quenched by the addition of 0.5% formic acid (final) with subsequent neutralization using 1% sodium bicarbonate (final). Internal standard peptides were added in 20 mM Hepes pH 8.0 for quantitation of the protease products. For SAMDI-MS analysis, 2 μL of each reaction mixture was transferred using a 384-channel automated liquid handler to SAMDI biochip arrays functionalized with a neutravidin-presenting self-assembled monolayer. The SAMDI arrays were incubated for 1 h in a humidified chamber to allow the specific immobilization of the biotinylated peptide substrates, cleaved products and internal standards. The samples were purified by washing the SAMDI arrays with deionized ultrafiltered water and dried with compressed air. A matrix comprising alpha-cyano cinnamic acid in 80% acetonitrile:20% aqueous ammonium citrate was applied in an automated format by dispensing 50 nL to each spot in the array. SAMDI-MS was performed using reflector-positive mode on an AB Sciex TOF-TOF 5800 System (AB Sciex, Framingham, MA) with 400 shots/spot analyzed in a random raster sampling. For data analysis, area under the curves (peaks) (AUCs) for the product and internal standard were calculated using the TOF/TOF Series Explorer (AB Sciex), and the amount of product formed was calculated using the equation (AUC product/AUC internal standard). The amount of product generated was calculated using the ratio of product area under the curve (AUC) divided by the AUC of the internal standard. Negative controls were pre-quenched with 0.5% formic acid final. Assay robustness was determined by Z-Factor. The IC50s were determined by fitting the curves using a four-parameter equation in Graphpad Prism 8.

[3] = tested on: human beta-coronavirus OC43; assay: microbe, parasite or virus in culture; type: cell-based; settings: Betacoronavirus 1, OC43, HeLa, 144 h
human cathepsin L = target: T1, human cathepsin L (Homo sapiens, UniProt P07711); assay: cathepsin L assay; type: biochemical; settings: 10 pM human cathepsin L, Z-FR-AMC 2 μM, class symbols
T1 construct: purchased R&D Systems
Procedure: For the cathepsin L assay, 10 pM of human cathepsin L (R&D Systems; Minneapolis, MN) was preincubated for 30 mins with test compounds. Reactions were initiated by the addition of a peptide substrate Z-FR-AMC (final concentration 2 μM, Anaspec; Fremont, CA). Fluorescence was measured at 2-minute intervals for 30 mins using a 355/460 excitation/emission filter module on an Envision plate reader (Perkin Elmer; Waltham, MA). The IC50 values were calculated for each assay by fitting the curves using a four-parameter equation in GraphPad Prism.

[4] = Cytotoxicity plates without OC43 virus (cell-titer-glo); type: cell-based, human; settings: human; HeLa cells without OC43 virus, class symbols
Procedure: The human beta-coronavirus OC43 was purchased from ATCC (Manassas, VA) and propagated using HCT-8 human colorectal epithelial cells (ATCC). HeLa human cervical epithelial cells (ATCC) were used as susceptible host cell lines and were cultured using EMEM media, supplemented with 10% fetal bovine serum (FBS), 1% (v/v) penicillin/streptomycin (P/S), 1% (v/v) HEPES and 1% (v/v) Cellgro Glutagro™ supplement (all Corning, Manassas, VA) at 37° C. For the OC43 antiviral assay, 1.5×10^4 HeLa cells per well were plated in 100 μL complete media in white 96-well plates with clear bottoms at 37° C. for up to 24 h to facilitate attachment and allow cells to recover from seeding stresses. Next day, the cell culture medium was removed. Serially diluted compounds in 100 μL assay media (EMEM, 2% FBS, 1% P/S, 1% Cellgro Glutagro™ supplement, 1% HEPES) were added to the cells and incubated for 4H at 37° C. in a humidified 5% CO2 incubator. 100 μL of OC43 virus stock was diluted to a concentration known to produce optimal cytopathic effect, inducing 80-90% reduction in cell viability. 96-well plates were incubated for 6 (HeLa) days at 33° C.; each plate contains uninfected control wells as well as virus-infected wells that were not treated with compound. Cytotoxicity plates without the addition of OC43 virus were carried out in parallel. At the end of the incubation period, 100 μL cell culture supernatant was replaced with 100 μL cell-titer-glo reagent (Promega, Madison, WI) and incubated for at least 10 min at rt prior to measuring luminescence. Luminescence was measured on a Perkin Elmer (Waltham, MA) Envision plate reader. Antiviral % inhibition was calculated as follows: [(Compound treated cells infected sample)−(no compound infected control)]/[(Uninfected control)−(no compound infected control)]*100; Using GraphPad (San Diego, CA) prism software version 8.3.1, the antiviral dose-response plot was generated as a sigmoidal fit, log(inhibitor) vs response-variable slope (four parameters) model and the EC50 was calculated which is the predicted compound concentration corresponding to a 50% inhibition of the viral cytopathic effect.

[5] = tested on: SARS-CoV-2-GHB-03021/2020; assay: microbe, parasite or virus in culture; type: cell-based; settings: Severe acute respiratory syndrome coronavirus 2, Vero C1008, 96 h; read-out: VeroE6 + CP (EC50)
in vitro [6] = settings: African green monkey, VeroE6 + CP (CC50), Vero E6-eGFP cells with CP-100356, absence of virus, MTS
[7] = HRV3C, class symbols, read-out: HRV IC50
[8] = OC43 in HeLa cells, 6 days at 33° C., class symbols, read-out: EC50
[9] = OC43 in HeLa cells, 6 days at 33° C., bound, read-out: EC50

With `O=C(NCc1ccccc1)C(=O)C(C[C@@H]1CCCNC1=O)NC(=O)[C@@H]1[C@H]2CCC[C@H]2CN1C(=O)c1cc2ccccc2[nH]1` (stereo partly drawn) [Compound 17, (1S,3aR,6aS)—N-(4-(benzylamino)-3,4-dioxo-1-((S)-2-oxopiperidin-3-yl)butan-2-yl)-2-(1H-indole-2-carbonyl)octahydrocyclopenta[c]pyrrole-1-carboxamide] the EC50 [1] was 1 to 10 µM, the IC50 (3CLpro) was 0.02 to 0.2 µM and the CC50 (in vitro [2]) was > 10 µM. It also gave an IC50 (HRV3C; [7]) of 2 to 20 µM, an EC50 [3, 8] of 0.1 to 1 µM and an IC50 (human cathepsin L) of 1 to 10 µM. The CC50 at 6 days [4] was > 10 µM.
In the case of `COc1cccc2[nH]c(C(=O)N3C[C@@H]4CCC[C@@H]4[C@H]3C(=O)N[C@@H](C[C@@H]3CCNC3=O)C(=O)CO)nc12` [Compound 37], the EC50 [1] is reported as 1 to 10 µM, the IC50 (3CLpro) is reported as 0.02 to 0.2 µM and the CC50 (in vitro [2]) is reported as > 100 µM. For the same compound, the IC50 (HRV3C; [7]) was 20 to 100 µM, the EC50 [3, 8] was 1 to 10 µM and the IC50 (human cathepsin L) was ≥ 10 µM. The CC50 at 6 days [4] was > 10 µM.
With `COc1cccc2[nH]c(C(=O)N3C[C@@H]4CCC[C@@H]4[C@H]3C(=O)NC(C[C@@H]3CCNC3=O)C(=O)C(N)=O)cc12` (stereo partly drawn) [Compound 56, 3-{[(1S,3aR,6aS)-2-(4-methoxy-1H-indole-2-carbonyl)-hexahydro-1H-cyclopenta[c]pyrrol-1-yl]formamido}-2-oxo-4-[(3S)-2-oxopyrrolidin-3-yl]butanamide] the EC50 [1] was 10 to 100 µM, the IC50 (3CLpro) was 0.02 to 0.2 µM and the CC50 (in vitro [2]) was > 100 µM. For the same compound, the IC50 (HRV3C; [7]) was 0.2 to 2 µM, the EC50 [3, 8] was 10 to 100 µM and the IC50 (human cathepsin L) was ≥ 10 µM. For the same compound, the CC50 at 6 days [4] was > 10 µM.
In the case of `COc1cccc2[nH]c(C(=O)N3C[C@@H]4CCC[C@@H]4[C@H]3C(=O)N[C@@H](C[C@@H]3CCNC3=O)C(=O)c3nc4ccccc4o3)cc12` [Compound 75, (1S,3aR,6aS)—N-[(2S)-1-(1,3-benzoxazol-2-yl)-1-oxo-3-[(3S)-2-oxopyrrolidin-3-yl]propan-2-yl]-2-(4-methoxy-1H-indole-2-carbonyl)-hexahydro-1H-cyclopenta[c]pyrrole-1-carboxamide], the IC50 (3CLpro) is reported as 0.02 to 0.2 µM, the EC50 [5] is reported as 1 to 10 µM and the IC50 (HRV3C; HRV IC50, HRV3C, bound) is reported as > 10 µM. For the same compound, the EC50 [3, 8] was 0.1 to 1 µM, the IC50 (human cathepsin L) was ≥ 10 µM and the CC50 (in vitro [6]; numeric bounds) was > 100 µM. For the same compound, the CC50 at 6 days [4] was > 10 µM.
Compound `O=C1NCC[C@H]1C[C@H](NC(=O)[C@@H]1[C@H]2CCC[C@H]2CN1C(=O)c1cc2c(=O)[nH]ccc2[nH]1)C(=O)CO` [Compound 76, (1S,3aR,6aS)—N-[(2S)-4-hydroxy-3-oxo-1-[(3S)-2-oxopyrrolidin-3-yl]butan-2-yl]-2-{4-oxo-1H,5H-pyrrolo[3,2-c]pyridine-2-carbonyl}-hexahydro-1H-cyclopenta[c]pyrrole-1-carboxamide] has an IC50 (3CLpro) of 0.02 to 0.2 µM, an EC50 [5] of 10 to 100 µM and an IC50 (HRV3C; HRV IC50, HRV3C, class symbols) of 0.2 to 2 µM. The EC50 [3, 9] was > 10 µM, the IC50 (human cathepsin L) was ≥ 10 µM and the CC50 (in vitro [6]; numeric bounds) was > 100 µM. The CC50 at 6 days [4] was > 10 µM.
With `Cn1ccc2[nH]c(C(=O)N3C[C@@H]4CCC[C@@H]4[C@H]3C(=O)N[C@@H](C[C@@H]3CCNC3=O)C(=O)CO)cc2c1=O` [Compound 77, (1S,3aR,6aS)—N—((S)-4-hydroxy-3-oxo-1-((S)-2-oxopyrrolidin-3-yl)butan-2-yl)-2-(5-methyl-4-oxo-4,5-dihydro-1H-pyrrolo[3,2-c]pyridine-2-carbonyl)octahydrocyclopenta[c]pyrrole-1-carboxamide] the IC50 (3CLpro) was 0.02 to 0.2 µM, the EC50 [5] was 10 to 100 µM and the IC50 (HRV3C; HRV IC50, HRV3C, class symbols) was 2 to 20 µM. The EC50 [3] was > 10 µM, the IC50 (human cathepsin L) was ≥ 10 µM and the CC50 (in vitro [6]; class symbols) was > 10 µM. The CC50 at 6 days [4] was > 10 µM.
`O=C1NCC[C@H]1C[C@H](NC(=O)[C@@H]1[C@H]2CCC[C@H]2CN1C(=O)c1cc2ncccc2[nH]1)C(=O)CO` [Compound 78, (1S,3aR,6aS)—N—((S)-4-hydroxy-3-oxo-1-((S)-2-oxopyrrolidin-3-yl)butan-2-yl)-2-(1H-pyrrolo[3,2-b]pyridine-2-carbonyl)octahydrocyclopenta[c]pyrrole-1-carboxamide] gave an IC50 (3CLpro) of 0.02 to 0.2 µM, an EC50 [5] of 10 to 100 µM and an IC50 (HRV3C; [7]) of 2 to 20 µM. For the same compound, the EC50 [3, 8] was 1 to 10 µM, the IC50 (human cathepsin L) was ≥ 10 µM and the CC50 (in vitro [6]; numeric bounds) was > 100 µM. For the same compound, the CC50 at 6 days [4] was > 10 µM.
In the case of `COc1cccc2[nH]c(C(=O)N3C[C@@H]4CCC[C@@H]4[C@H]3C(=O)N[C@@H](C[C@@H]3CCNC3=O)C(=O)c3nc4ccccc4[nH]3)cc12` [Compound 92, (1S,3aR,6aS)—N-[(2S)-1-(1H-1,3-benzodiazol-2-yl)-1-oxo-3-[(3S)-2-oxopyrrolidin-3-yl]propan-2-yl]-2-(4-methoxy-1H-indole-2-carbonyl)-hexahydro-1H-cyclopenta[c]pyrrole-1-carboxamide], the IC50 (3CLpro) is reported as 0.2 to 2 µM, the EC50 [5] is reported as 10 to 100 µM and the IC50 (HRV3C; HRV IC50, HRV3C, bound) is reported as > 10 µM. The EC50 [3, 9] was > 10 µM, the IC50 (human cathepsin L) was ≥ 10 µM and the CC50 (in vitro [6]; numeric bounds) was > 100 µM. For the same compound, the CC50 at 6 days [4] was > 10 µM.
For `COc1cccc2[nH]c(C(=O)N3Cc4ccccc4C[C@H]3C(=O)N[C@@H](C[C@@H]3CCNC3=O)C(=O)COCc3ccccc3)cc12` [Compound 99], the IC50 (3CLpro) was 2 to 20 µM, the EC50 [5] was 10 to 100 µM and the IC50 (HRV3C; HRV3C, bound, read-out: HRV IC50) was > 10 µM. For the same compound, the EC50 [3, 9] was > 10 µM, the IC50 (human cathepsin L) was ≥ 10 µM and the CC50 (in vitro [6]; class symbols) was > 10 µM. For the same compound, the CC50 at 6 days [4] was > 10 µM.
`COc1cccc2[nH]c(C(=O)N3C[C@@H]4CCC[C@@H]4[C@H]3C(=O)N[C@@H](C[C@@H]3CCNC3=O)C(=O)C(=O)NCC(F)(F)F)cc12` [Compound 114] gave an IC50 (3CLpro) of 0.2 to 2 µM, an EC50 [5] of 10 to 100 µM and an IC50 (HRV3C; [7]) of 2 to 20 µM. For the same compound, the EC50 [3, 8] was 1 to 10 µM, the IC50 (human cathepsin L) was ≥ 10 µM and the CC50 (in vitro [6]; numeric bounds) was > 50 µM. For the same compound, the CC50 at 6 days [4] was > 10 µM.
